From US20100331189A1, “Plant Growth Promoter Utilizing Potato Cyst Nematode” (TOKAI UNIVERSITY EDUCATIONAL SYSTEM, priority 2008, published 2010) come the findings set out here.

For series [1], the system named is beets. Briefly: Beet cultivation in PCN-contaminated farmland after spraying around the roots (2007). The following applies: cultivated 112 days; for Average weight of three beets other than the largest beet / Weight of the largest beet: PCN-contaminated farmland; for Sugar content: saccharimeter. In kind it is in vivo. How it is done: A farmland (Fujimi, Kutchan-cho, Hokkaido) contaminated by PCNs was examined in advance.
In that farmland, about […] beets per 1 m^2 were cultivated under the conditions that the width of a ridge was 69 cm and the distance between beets was 30 cm. […] The amount sprayed was changed to three levels, 1.8, 5.5, and 9.0 (g/m^2), and each chemical agent having the above-described amount was dissolved in 5 liters of water to obtain a spraying solution. Subsequently, the beets were cultivated for 112 days and the grown beets were harvested. The weight (kg) of the largest beet, the average weight (kg) of three beets other than the largest beet, and the sugar content (%) were measured. […] The sugar content (%) was measured with a saccharimeter (MASTER-M model 2313 available from ATAGO Co., Ltd.). […]
The mixed chemical agent contained 6% by mass of coconut oil fatty acid diethanolamide and 0.6% by mass of polyethylene glycol.

The test system of series [2] is eggs of potato cyst nematodes. Briefly: Accelerated hatching effect of aqueous fatty acid dialkanolamide solution. In kind it is in vivo. As to conditions: 1000-fold diluted aqueous solution; water 5.0%. How it is done: The accelerated hatching effect of an aqueous fatty acid dialkanolamide solution for the eggs of potato cyst nematodes was measured. […] It is believed that the fatty acid dialkanolamide has a function of breaking the eggshell of PCNs and thus the eggs of PCNs are forcedly hatched.

For a further series, the system named is PCNs. Briefly: PCN control at a site where a potato had been cultivated: nematode density after spraying. As to conditions: sprayed amount 9.0 g/m^2; soil had 2000 to 5000 PCNs per 20 g. In kind it is in vivo, potato cyst nematodes. From the text:
After the chemical agents were sprayed, all the cysts in 20 g of air-dried soil were gathered and the total number of eggs and second-generation larvae in the cysts was obtained.

The subject of series [3] is beets. Briefly: Beet cultivation after treatments of farmland sections (2008). Format: in vivo. As to conditions: for Average weight / Weight of the largest beet: sprayed once before planting; for growth promotion / enlargement of a beet (in words): results of beet cultivation of Table 8. As to the method: [table] The beets were cultivated under the conditions that the width of a ridge was 69 cm and the distance between beets was 30 cm. […] Then the beets were cultivated until Oct. 8, 2008 and harvested. After the stems and leaves of the harvested beets were removed, the weight of the beets was measured.

The test system of another series is PCN. Briefly: PCN density in treated farmland sections (2008). In kind it is in vivo, potato cyst nematodes.
Series [4] is described as follows: Polarity and solubility in water. The following applies: research conducted by the inventors. Format: physicochemical. From the text: Thus, the inventors of the present invention have focused on an ecological method. The ecological method is an indirect method in which the eggs of PCNs are forcedly hatched in some way, and then the hatched larvae are made to starve to death or destroyed using a typical agricultural chemical, which results in the prevention of the damage caused by the PCNs. It has been known for a long time that PCNs hatch when exposed to a substance secreted from the host plants, and there has been conducted a study for identifying a hatching-activating substance and isolating it from the secretory substance. Patent Document 1 discloses Solanoeclepin A as the hatching-activating substance.

Where [5] appears, read: 260 mg in 100 ml of water per single beet.
Setting [6] is: 260 mg in 100 ml of water per two beets.

On to `CC(=O)N(CCO)CCO` [Example 1, acetic acid diethanolamide], for which the “Average weight of three beets other than the largest beet” value with beets [1] (sprayed amount 1.8 g/m^2, once) was determined as 1.63 kg; in the series on beets [1] (sprayed amount 5.5 g/m^2, once) it was 1.68 kg; with beets [1] (sprayed amount 9.0 g/m^2, once), 1.40 kg. Besides, the “Weight of the largest beet” value was found to be 2.85 kg with beets [1] (sprayed amount 1.8 g/m^2, once); 2.53 kg in the series with beets [1] (sprayed amount 5.5 g/m^2, once); 1.90 kg with beets [1] (sprayed amount 9.0 g/m^2, once). Besides, the Sugar content is listed as 19.80% with beets [1] (sprayed amount 1.8 g/m^2, once); 20.10% with beets [1] (sprayed amount 5.5 g/m^2, once); 19.90% in the series with beets [1] (sprayed amount 9.0 g/m^2, once).
On to `CCCCCCCCCC(=O)N(CCO)CCO` [Example 4, decanoic acid diethanolamide], for which, in series [2], the hatching ratio was found to be 23.8%. Also, in the series on PCNs, the “Nematode density (total number of eggs and second-generation larvae in the cysts)” value was 765 /20 g of air-dried soil. In the series with beets [1] (sprayed amount 1.8 g/m^2, once), the “Average weight of three beets other than the largest beet” value is 1.86 kg, the “Weight of the largest beet” value came out at 2.20 kg and the Sugar content was 21.20%. Also, in the series with beets [1] (sprayed amount 5.5 g/m^2, once), the “Average weight of three beets other than the largest beet” value is reported as 1.92 kg, the “Weight of the largest beet” value is 2.35 kg and the Sugar content is 20.00%. In addition, in the series with beets [1] (sprayed amount 9.0 g/m^2, once), the “Average weight of three beets other than the largest beet” value is on record as 1.62 kg, the “Weight of the largest beet” value is given as 2.15 kg and the Sugar content amounted to 23.40%.
On to `CCCCCCCCCCCCCCCCCC(=O)N(CCO)CCO` [Example 7, octadecanoic acid diethanolamide], for which the “Nematode density (total number of eggs and second-generation larvae in the cysts)” value in the series on PCNs is recorded as 540 /20 g of air-dried soil. Also, in the series on beets [1] (sprayed amount 1.8 g/m^2, once), the “Average weight of three beets other than the largest beet” value was 1.48 kg, the “Weight of the largest beet” value is recorded as 2.05 kg and the Sugar content is listed as 20.20%. In the series with beets [1] (sprayed amount 5.5 g/m^2, once), the “Average weight of three beets other than the largest beet” value amounted to 1.65 kg, the “Weight of the largest beet” value is 1.95 kg and the Sugar content turned out to be 20.20%. In the series with beets [1] (sprayed amount 9.0 g/m^2, once), the “Average weight of three beets other than the largest beet” value was 1.85 kg, the “Weight of the largest beet” value was determined as 2.30 kg and the Sugar content worked out at 21.00%.
Turning to `CCCCCC(=O)N(CCO)CCO` [Example 15, hexanoic acid diethanolamide], in the series on beets [3] (setting [5]), the Average weight was 1.55 kg and the “Weight of the largest beet” value was 2.10 kg. The “growth promotion / enlargement of a beet (in words)” value (from here on “growth promotion / enlargement”) with beets [3] is given as “achieves the enlargement of a beet”. The PCN density in the series with PCN (260 mg in 100 ml of water sprayed around the area of a single beet) was 600 /20 g of air-dried soil. Further, the “effect on PCN density (in words)” value in the series on PCN (section 2-1 compared with section 1-1) is listed as “decreases PCN density”.
In the case of `COC1=C2C(C)(C)[C@H]3O[C@@]2(CC3=O)[C@@H](O)C2=C(C1=O)[C@@]13C(=O)[C@@]([C@@H]4C[C@H]4C(=O)O)(C[C@@H]1O)[C@]3(C)CC2` [Solanoeclepin A], the solubility in water entry in series [4] is “poor solubility in water”.
For the compound `CC(=O)NCCO` [compound 13, acetic acid monoethanolamide], in the series with beets [3] (setting [6]), the Average weight amounted to 1.40 kg and the “Weight of the largest beet” value is 1.40 kg. Moreover, the “growth promotion / enlargement” value in the series on beets [3] is listed as “poor effect of growth promotion”.
On to `CCCCCCCCCC(=O)NCCO` [compound 14, decanoic acid monoethanolamide], for which, in the series with beets [3] (setting [6]), the Average weight was found to be 1.10 kg and the “Weight of the largest beet” value is on record as 1.80 kg. Moreover, the “growth promotion / enlargement” value in the series on beets [3] was “poor effect of growth promotion”.
